Experimental data from EP0953355A1, “REMEDY FOR AUTOIMMUNE DISEASES” (Sankyo Company, Limited, priority 1996, dated 1997).

Tests used:
Lewis rats = assay: Inhibitory effect on bone destruction induced by adjuvant arthritis; assay type: in vivo; conditions: for Bone Destruction Score (points): right hind paw, day 21, maximum score 8, groups of 5; for Bone Destruction Inhibition Rate (%): versus control group; for bone destruction compared with the control group / inhibition of bone destruction as compared with the control group: Wilcoxon test
Protocol: The inhibitory effect was determined in a similar manner to that of Winder, et al. (Arthritis Rheum., Vol. 12, p. 472, 1969). Using Lewis rats (females, age 8-10 weeks, body weights: 160-200 g, Japan Charles River) in groups of 5 each, adjuvant (heat-killed Mycobacterium butyricum)was injected intradermally into the right hind paw of each rat at 100 µg/0.05 ml/paw to induce arthritis. The rats were orally administered troglitazone at 0.2%, pioglitazone at 0.05% and BRL-49653 at 0.005%, respectively, by mixing in powdered feed until day 20 taking the day of injection of adjuvant to be day 0. Rats in a control group were given powdered feed only during the same period. The rats were sacrificed on day 21. After excising the right hind paw (the injected paw), soft X-rays were taken of each paw to observe and score the state of bone destruction. Bone destruction was scored by evaluating into 5 ranks consisting of 0, 1, 2, 3 and 4, assigning 0 points in the absence of bone destruction (normal) and increasing scores depending on the state of joint destruction, bone destruction, deformation and osteophyte formation. The worst state of such bone disorders was assigned a score of 4. The bone disorders were scored at two locations, the calcaneus and the location extending from the tarsal bones to the metatarsal bones. Thus, the score for each animal was determined by calculating the total score for the two locations and the maximum score was 8 points.
The inhibitory effect was determined according to the methods of Winder, et al. (Arthritis Rheum., Vol. 12, p. 472, 1969). Using Lewis rats (females, age 8-10 weeks, body weights: 160 to 200 g, Japan Charles River) in groups of 5 each, adjuvant (heat-killed Mycobacterium butyricum)was injected intradermally into the sole of the right hind paw of each rat at 100 µg/0.05 ml/paw to induce arthritis. The rats were orally administered Compound A at 0.1% and Compound B at 0.1%, respectively, by mixing in powdered feed until day 20 taking the day of injection of adjuvant to be day 0. Rats in a control group were given powdered feed only during the same period. The rats were sacrificed on day 21. After excising the right hind paw (the injected paw), soft X-rays were taken of each paw to observe and score the state of bone destruction. Bone destruction was scored by evaluating into 5 ranks consisting of 0, 1, 2, 3 and 4, assigning 0 points in the absence of bone destruction (normal) and increasing scores depending on the state of joint destruction, bone destruction, deformation and osteophyte formation. The worst state of bone destruction was assigned a score of 4. Bone destruction was scored at two locations, the calcaneus and the location extending from the tarsal bones to the metatarsal bones. Thus, the score for each animal was determined by calculating the total score for the two locations and the maximum score was 8 points.

islet β cells = assay: Inhibitory effect on lymphocyte invasion (streptozotocin-induced autoimmunity to islet β cells); assay type: in vivo, DBA/2 mice; conditions: for islet cells invaded by lymphocytes in all mice: 0.1% in feed; for Degree of lymphocyte invasion 0 to 40% / Degree of lymphocyte invasion 40 to 60%: percentage of mice within this range, oral, streptozotocin 40 mg/kg i.p. for 5 days
Protocol: Streptozotocin was administered intraperitoneally for 5 days to 8-week-old DBA/2 mice at 40 mg/kg to induce autoimmunity of islet β cells. […] Mice in the control group were given only powdered feed during the same period.
(§1) Blood samples were collected from the tail vein before the start, during and on the final day of streptozotocin administration. The blood samples were centrifuged to obtain plasma, and the glucose levels of the obtained plasma were measured with a glucose analyzer (Sino-Test Co., Ltd.). In the figure, glucose levels (mg/dl) are plotted on the vertical axis, while time (days) is plotted on the horizontal axis. [drawing]
The mice used in the experiment were sacrificed following measurement of glucose levels on the final day of pioglitazone administration. The pancreas of each animal was excised and fixed with bouian solution. Thin tissue slices were prepared from the pancreas and the degree of lymphocyte invasion into islet cells was observed by a light microscope. […] Moreover, the degree of lymphocyte invasion was classified as either 0 to 40% or 40 to 60%. The number of mice classified within each range was illustrated in Table 3 as a percentage (%) relative to the total number of mice in the pioglitazone administration group and control groups.
Streptozotocin was administered intraperitoneally for 5 days to 8-week-old DBA/2 mice at 40 mg/kg to induce autoimmunity of islet β cells. […] Control mice were given only powdered feed during the same period.
as §1, with “(Sinotest).” for “(Sino-Test Co., Ltd.).”
The mice used in the experiment were sacrificed following measurement of glucose levels on the final day of drug administration. The pancreas of each animal was excised and fixed with bouian solution. Thin tissue slices were prepared from the pancreas and the degree of lymphocyte invasion into islet cells was observed by a light microscope. […] Moreover, the degree of lymphocyte invasion of each mouse was classified as either 0 to 40% or 40 to 60%.

ddY mice = assay type: in vivo; conditions: 300 mg/kg oral, three ddY mice (males), observed for 5 days
Protocol: Acute toxicity was determined in accordance with conventional methods. […] 2, 3,4 and 10, all acute toxicities of these compounds were determined to be 300 mg/kg and more after oral administration of them.

[1] = Example 5, 0.1% in powdered feed until day 20
[2] = Example 4, from Fig. 3 (plasma glucose levels) and Table 4
[3] = 0.1% in F2 powdered feed (BRL-49653: 125 mg/kg/day, Compound A: 94 mg/kg/day), 31 days
[4] = 0.2% in F2 powdered feed (240 mg/kg/day), 38 days
[5] = Example 2, in powdered feed until day 20: troglitazone 0.2%, pioglitazone 0.05%, BRL-49653 0.005%
[6] = 0.2% in F2 powdered feed (236 mg/kg/day), 38 days

Row | SMILES | Bone Destruction Score (points) (Lewis rats; [1]) | Bone Destruction Inhibition Rate (%) (Lewis rats; [1]) | bone destruction compared with the control group (Lewis rats; Example 5) | islet cells invaded by lymphocytes in all mice (islet β cells; Example 4, 31 days) | onset of autoimmune disease (islet β cells; [2]) | Degree of lymphocyte invasion 0 to 40% (islet β cells; [3]) | Degree of lymphocyte invasion 40 to 60% (islet β cells; [3]) | inhibition of bone destruction as compared with the control group (Lewis rats; Example 2) | Bone Destruction Score (points) (Lewis rats; [5]) | Bone Destruction Inhibition Rate (%) (Lewis rats; [5]) | also measured
1 | COc1ccc2nc(COc3ccc(CC4SC(=O)NC4=O)cc3)n(C)c2c1 (centres unmarked) [Compound B, 5-[4-(6-methoxy-1-methylbenzimidazol-2-ylmethoxy)benzyl]thiazolidine-2,4-dione] | 6.6 ± 0.8 points | 17.5% | tended to be inhibited |  |  |  |  |  |  |  | 
2 | CC(=NOCCOc1ccc(CC2SC(=O)NC2=O)cc1)c1ccc(-c2ccccn2)cc1 (centres unmarked) [Compound A, 5-[4-[2-[[[1-[4-(2-pyridyl)phenyl]ethylidene]amino]oxy]ethoxy]benzyl]thiazolidine-2,4-dione] | 6.6 ± 0.7 points | 17.5% | tended to be inhibited | less than 40% | suppresses the onset of autoimmune disease | 100% | 0% |  |  |  | 
3 | Cc1c(C)c2c(c(C)c1O)CCC(C)(COc1ccc(CC3SC(=O)NC3=O)cc1)O2 (centres unmarked) [Troglitazone, 5-[4-(6-hydroxy-2,5,7,8-tetramethylchroman-2-ylmethoxy)benzyl]thiazolidine-2,4-dione] |  |  |  |  |  |  |  | significant inhibition of bone destruction | 5.4 ± 0.2 points | 27.0% | survival (ddY mice): All animals survived; degree of lymphocyte invasion into islet cells in all mice (islet β cells; Example 1, 0.2% in feed (240 mg/kg/day), 38 days): ≤ 40%; onset of autoimmune disease (islet β cells; Example 1, on the basis of Fig. 1 (plasma glucose levels) and Table 1): suppresses the onset of autoimmune disease; Degree of lymphocyte invasion 0 to 40% (islet β cells; [4]): 100%; Degree of lymphocyte invasion 40 to 60% (islet β cells; [4]): 0%
4 | CN(CCOc1ccc(CC2SC(=O)NC2=O)cc1)c1ccccn1 (centres unmarked) [BRL-49653, 5-{4-[2-(N-methyl-N-(2-pyridyl)amino)ethoxy]benzyl}thiazolidine-2,4-dione] |  |  |  | less than 40% | suppresses the onset of autoimmune disease | 100% | 0% | exhibited inhibition of bone destruction | 4.8 ± 1.2 points | 35.1% | 
5 | CCc1ccc(CCOc2ccc(CC3SC(=O)NC3=O)cc2)nc1 (centres unmarked) [Pioglitazone, 5-{4-[2-(5-ethyl-2-pyridyl)ethoxy]benzyl}-2,4-thiazolidinedione] |  |  |  |  |  |  |  | exhibited inhibition of bone destruction | 4.4 ± 1.0 points | 40.5% | degree of lymphocyte invasion into islet cells in all mice (islet β cells; Example 3, 0.2% in feed (236 mg/kg/day), 38 days): ≤ 40%; onset of autoimmune disease (islet β cells; Example 3, on the basis of Fig. 2 (plasma glucose levels) and Table 3): suppresses the onset of autoimmune disease; Degree of lymphocyte invasion 0 to 40% (islet β cells; [6]): 100%; Degree of lymphocyte invasion 40 to 60% (islet β cells; [6]): 0%
